Earlier results as cited in US20100135914A1, “AZEOTROPIC FUMIGANT COMPOSITIONS AND METHODS OF CONTROLLING PESTS” (priority 2008, published 2010).

What was measured:
[1] = system: post-embryonic stages of insects; details: in vivo
[2] = system: eggs of many moths and beetles; details: exposures of up to three days
[3] = system: maize weevil

Row | Structure (SMILES) | toxicity to post-embryonic stages of insects [1] | concentration for complete kill of the egg stage [2] | dosage level toxic to maize weevil eggs ([3]; eggs, over 6 hours) | toxicity to life stages of the maize weevil ([3]; relatively short exposure periods and low temperatures)
1 | O=S(=O)(F)F [Sulfuryl fluoride] | highly toxic | over 50 mg/L |  | 
2 | CI [Methyl iodide] |  |  | 2.16 mg/L | toxic to all life stages
